Results taken from ChEMBL document CHEMBL1671854, “ramR mutations involved in efflux-mediated multidrug resistance in Salmonella enterica serovar Typhimurium” (2008).
Converted amounts (≈) assume the structure as drawn.

Tests used:
Format in all cases: functional, Salmonella enterica subsp. enterica serovar Typhimurium
[1] = system: Salmonella typhimurium; test: Antimicrobial activity against multidrug-resistant Salmonella enterica serovar Typhimurium BN9181 by agar doubling dilution method
[2] = system: Salmonella typhimurium; test: Antimicrobial activity against multidrug-resistant Salmonella enterica serovar Typhimurium 543SA98 harboring plasmid encoded RamR gene, GyrA S83Y mutant gene by agar doubling dilution method
[3] = system: Salmonella typhimurium; test: Antimicrobial activity against multidrug-resistant Salmonella enterica serovar Typhimurium 902SA92 harboring plasmid encoded RamR gene, GyrA S83A and D87N, GyrB S464F and ParC S80I mutant genes by agar doubling dilution method
[4] = system: Salmonella typhimurium; test: Antimicrobial activity against ramA::kan-deficient Salmonella enterica serovar Typhimurium BN18/41 harboring plasmid encoded RamR gene, GyrA G81C,acrR mutant genes by agar doubling dilution method
[5] = system: Salmonella typhimurium; test: Antimicrobial activity against multidrug-resistant Salmonella enterica serovar Typhimurium BN9945 by agar doubling dilution method
[6] = system: Salmonella typhimurium; test: Antimicrobial activity against multidrug-resistant Salmonella enterica serovar Typhimurium BN10055 harboring plasmid encoded RamR gene, GyrA S83Y mutant gene by agar doubling dilution method
[7] = system: Salmonella typhimurium; test: Antimicrobial activity against multidrug-resistant Salmonella enterica serovar Typhimurium 102SA00 harboring plasmid encoded RamR gene, GyrA S83A and D87N, GyrB S464F and ParC S80I mutant genes by agar doubling dilution method
[8] = system: Salmonella typhimurium; test: Antimicrobial activity against multidrug-resistant Salmonella enterica serovar Typhimurium BN9945 harboring plasmid encoded RamR gene by agar doubling dilution method
[9] = system: Salmonella typhimurium; test: Antimicrobial activity against ramA::kan-deficient Salmonella enterica serovar Typhimurium BN18/71 harboring plasmid encoded RamR gene, GyrA G81C,acrR mutant genes by agar doubling dilution method
[10] = system: Salmonella typhimurium; test: Antimicrobial activity against ramR-deficient Salmonella enterica serovar Typhimurium S/921495 harboring plasmid encoded RamR gene by agar doubling dilution method
[11] = system: Salmonella typhimurium; test: Antimicrobial activity against multidrug-resistant Salmonella enterica serovar Typhimurium 902SA92 harboring GyrA S83A and D87N, GyrB S464F and ParC S80I mutant genes by agar doubling dilution method
[12] = system: Salmonella typhimurium; test: Antimicrobial activity against ramR-deficient Salmonella enterica serovar Typhimurium S/921495 by agar doubling dilution method
[13] = system: Salmonella typhimurium; test: Antimicrobial activity against Salmonella enterica serovar Typhimurium BN18/41 harboring plasmid encoded RamR gene, GyrA G81C,acrR mutant genes by agar doubling dilution method
[14] = system: Salmonella typhimurium; test: Antimicrobial activity against soxR::kan-deficient Salmonella enterica serovar Typhimurium S/921495 by agar doubling dilution method
[15] = system: Salmonella typhimurium; test: Antimicrobial activity against Salmonella enterica serovar Typhimurium BN18/21 by agar doubling dilution method
[16] = system: Salmonella typhimurium; test: Antimicrobial activity against soxS::kan-deficient Salmonella enterica serovar Typhimurium S/921495 by agar doubling dilution method
[17] = system: Salmonella typhimurium; test: Antimicrobial activity against ramA::kan-deficient Salmonella enterica serovar Typhimurium 902SA92 harboring GyrA S83A and D87N, GyrB S464F and ParC S80I mutant genes by agar doubling dilution method
[18] = system: Salmonella typhimurium; test: Antimicrobial activity against ramR::kan-deficient Salmonella enterica serovar Typhimurium S/921495 by agar doubling dilution method
[19] = system: Salmonella typhimurium; test: Antimicrobial activity against Salmonella enterica serovar Typhimurium BN18/71 harboring plasmid encoded RamR gene, GyrA G81C,acrR mutant genes by agar doubling dilution method
[20] = system: Salmonella typhimurium; test: Antimicrobial activity against Salmonella enterica serovar Typhimurium BN18 by agar doubling dilution method
[21] = system: Salmonella typhimurium; test: Antimicrobial activity against multidrug-resistant Salmonella enterica serovar Typhimurium BN10055 harboring GyrA S83Y mutant gene by agar doubling dilution method
[22] = system: Salmonella typhimurium; test: Antimicrobial activity against Salmonella enterica serovar Typhimurium S/921495 harboring plasmid encoded RamR gene by agar doubling dilution method
[23] = system: Salmonella typhimurium; test: Antimicrobial activity against ramA::kan-deficient Salmonella enterica serovar Typhimurium 102SA00 harboring GyrA S83A and D87N, GyrB S464F and ParC S80I mutant genes by agar doubling dilution method
[24] = system: Salmonella typhimurium; test: Antimicrobial activity against multidrug-resistant Salmonella enterica serovar Typhimurium 543SA98 harboring GyrA […] mutant gene by agar doubling dilution method
[25] = system: Salmonella typhimurium; test: Antimicrobial activity against ramA::kan-deficient Salmonella enterica serovar Typhimurium BN9181 by agar doubling dilution method
[26] = system: Salmonella typhimurium; test: Antimicrobial activity against ramA::kan-deficient Salmonella enterica serovar Typhimurium BN18/21 by agar doubling dilution method
[27] = system: Salmonella typhimurium; test: Antimicrobial activity against ramA::kan-deficient Salmonella enterica serovar Typhimurium S/921495 by agar doubling dilution method
[28] = system: Salmonella typhimurium; test: Antimicrobial activity against multidrug-resistant Salmonella enterica serovar Typhimurium 102SA00 harboring GyrA S83A and D87N, GyrB S464F and ParC S80I mutant genes by agar doubling dilution method
[29] = system: Salmonella typhimurium; test: Antimicrobial activity against multidrug-resistant Salmonella enterica serovar Typhimurium BN9181 harboring plasmid encoded RamR gene by agar doubling dilution method
[30] = system: Salmonella typhimurium; test: Antimicrobial activity against Salmonella enterica serovar Typhimurium BN18 harboring plasmid encoded RamR gene by agar doubling dilution method
[31] = system: Salmonella typhimurium; test: Antimicrobial activity against Salmonella enterica serovar Typhimurium S/921495 by agar doubling dilution method
[32] = system: Salmonella typhimurium; test: Antimicrobial activity against Salmonella enterica serovar Typhimurium BN18/21 harboring plasmid encoded RamR gene by agar doubling dilution method
[33] = system: Salmonella typhimurium; test: Antimicrobial activity against marA::kan-deficient Salmonella enterica serovar Typhimurium S/921495 by agar doubling dilution method
[34] = system: Salmonella typhimurium; test: Antimicrobial activity against Salmonella enterica serovar Typhimurium BN18/41 harboring GyrA G81C,acrR mutant genes by agar doubling dilution method
[35] = system: Salmonella typhimurium; test: Antimicrobial activity against ramA::kan-deficient Salmonella enterica serovar Typhimurium BN10055 harboring GyrA S83Y mutant gene by agar doubling dilution method
[36] = system: Salmonella typhimurium; test: Antimicrobial activity against ramA::kan-deficient Salmonella enterica serovar Typhimurium 543SA98 harboring GyrA S83Y mutant gene by agar doubling dilution method
[37] = system: Salmonella typhimurium; test: Antimicrobial activity against marR-deficient Salmonella enterica serovar Typhimurium S/921495 by agar doubling dilution method
[38] = system: Salmonella typhimurium; test: Antimicrobial activity against marR::kan-deficient Salmonella enterica serovar Typhimurium S/921495 by agar doubling dilution method
[39] = system: Salmonella typhimurium; test: Antimicrobial activity against ramA::kan-deficient Salmonella enterica serovar Typhimurium BN18 by agar doubling dilution method
[40] = system: Salmonella typhimurium; test: Antimicrobial activity against ramA::kan-deficient Salmonella enterica serovar Typhimurium BN9945 by agar doubling dilution method
[41] = system: Salmonella typhimurium; test: Antimicrobial activity against Salmonella enterica serovar Typhimurium BN18/71 harboring GyrA G81C, acrR mutant genes by agar doubling dilution method

For `O=C(N[C@H](CO)[C@H](O)c1ccc([N+](=O)[O-])cc1)C(Cl)Cl` [CHLORAMPHENICOL], the MIC [1] was 128 mg/L (≈ 396 µM), the MIC [2] was 128 mg/L (≈ 396 µM) and the MIC [3] was 256 mg/L (≈ 792 µM). The MIC [4] was 16 mg/L (≈ 49.5 µM), the MIC [5] was 512 mg/L (≈ 1580 µM) and the MIC [6] was 1020 mg/L (≈ 3170 µM). For the same molecule, the MIC [7] was 256 mg/L (≈ 792 µM), the MIC [8] was 128 mg/L (≈ 396 µM) and the MIC [9] was 16 mg/L (≈ 49.5 µM). The MIC [10] was 4 mg/L (≈ 12.4 µM), the MIC [11] was 1020 mg/L (≈ 3170 µM) and the MIC [12] was 16 mg/L (≈ 49.5 µM). It also gave an MIC [13] of 16 mg/L (≈ 49.5 µM), an MIC [14] of 4 mg/L (≈ 12.4 µM) and an MIC [15] of 16 mg/L (≈ 49.5 µM). It also gave an MIC [16] of 4 mg/L (≈ 12.4 µM), an MIC [17] of 256 mg/L (≈ 792 µM) and an MIC [18] of 16 mg/L (≈ 49.5 µM). The MIC [19] was 16 mg/L (≈ 49.5 µM), the MIC [20] was 4 mg/L (≈ 12.4 µM) and the MIC [21] was 1020 mg/L (≈ 3170 µM). The MIC [22] was 4 mg/L (≈ 12.4 µM), the MIC [23] was 256 mg/L (≈ 792 µM) and the MIC [24] was 512 mg/L (≈ 1580 µM). For the same molecule, the MIC [25] was 128 mg/L (≈ 396 µM), the MIC [26] was 4 mg/L (≈ 12.4 µM) and the MIC [27] was 4 mg/L (≈ 12.4 µM). The MIC [28] was 512 mg/L (≈ 1580 µM), the MIC [29] was 128 mg/L (≈ 396 µM) and the MIC [30] was 4 mg/L (≈ 12.4 µM). For the same molecule, the MIC [31] was 4 mg/L (≈ 12.4 µM), the MIC [32] was 4 mg/L (≈ 12.4 µM) and the MIC [33] was 4 mg/L (≈ 12.4 µM). The MIC [34] was 32 mg/L (≈ 99 µM), the MIC [35] was 128 mg/L (≈ 396 µM) and the MIC [36] was 128 mg/L (≈ 396 µM). The MIC [37] was 4 mg/L (≈ 12.4 µM), the MIC [38] was 4 mg/L (≈ 12.4 µM) and the MIC [39] was 4 mg/L (≈ 12.4 µM). The MIC [40] was 128 mg/L (≈ 396 µM) and the MIC [41] was 64 mg/L (≈ 198 µM).

With `CCn1cc(C(=O)O)c(=O)c2ccc(C)nc21` [NALIDIXIC ACID] the MIC [1] was 4 mg/L (≈ 17.2 µM), the MIC [2] was 512 mg/L (≈ 2200 µM) and the MIC [3] was 4100 mg/L (≈ 17600 µM). For the same molecule, the MIC [4] was 4100 mg/L (≈ 17600 µM), the MIC [5] was 1020 mg/L (≈ 4410 µM) and the MIC [6] was > 4100 mg/L. For the same molecule, the MIC [7] was 4100 mg/L (≈ 17600 µM), the MIC [8] was 512 mg/L (≈ 2200 µM) and the MIC [9] was 4100 mg/L (≈ 17600 µM). The MIC [10] was 4 mg/L (≈ 17.2 µM), the MIC [11] was > 4100 mg/L and the MIC [12] was 16 mg/L (≈ 68.9 µM). For the same molecule, the MIC [13] was 4100 mg/L (≈ 17600 µM), the MIC [14] was 2 mg/L (≈ 8.61 µM) and the MIC [15] was 64 mg/L (≈ 276 µM). The MIC [16] was 4 mg/L (≈ 17.2 µM), the MIC [17] was 4100 mg/L (≈ 17600 µM) and the MIC [18] was 16 mg/L (≈ 68.9 µM). The MIC [19] was 4100 mg/L (≈ 17600 µM), the MIC [20] was 4 mg/L (≈ 17.2 µM) and the MIC [21] was > 4100 mg/L. The MIC [22] was 4 mg/L (≈ 17.2 µM), the MIC [23] was 4100 mg/L (≈ 17600 µM) and the MIC [24] was 1020 mg/L (≈ 4410 µM). It also gave an MIC [25] of 4 mg/L (≈ 17.2 µM), an MIC [26] of 8 mg/L (≈ 34.4 µM) and an MIC [27] of 4 mg/L (≈ 17.2 µM). For the same molecule, the MIC [28] was > 4100 mg/L, the MIC [29] was 4 mg/L (≈ 17.2 µM) and the MIC [30] was 4 mg/L (≈ 17.2 µM). It also gave an MIC [31] of 4 mg/L (≈ 17.2 µM), an MIC [32] of 8 mg/L (≈ 34.4 µM) and an MIC [33] of 4 mg/L (≈ 17.2 µM). For the same molecule, the MIC [34] was > 4100 mg/L, the MIC [35] was 512 mg/L (≈ 2200 µM) and the MIC [36] was 512 mg/L (≈ 2200 µM). For the same molecule, the MIC [37] was 2 mg/L (≈ 8.61 µM), the MIC [38] was 2 mg/L (≈ 8.61 µM) and the MIC [39] was 4 mg/L (≈ 17.2 µM). The MIC [40] was 512 mg/L (≈ 2200 µM) and the MIC [41] was > 4100 mg/L.
